Series [1] deals with retinal (ocular) neovascularization. The series can be described thus: Angiography after fluorescein-dextran perfusion in mouse model of Retinopathy of Prematurity (ROP). Type of series: in vivo, C57/BL6 mice. As to conditions: ROP mice.
From the text: To determine whether inhibition of the Shh signaling pathway by administration of an siRNA targeting Shh is able to reduce retinal (ocular) neovascularization, siRNA targeting Shh is administrated to a mouse model of Retinopathy of Prematurity (ROP).
C57/BL6 mice are used in this study. Mice from postnatal day 7 (P7) to P12 are exposed to hyperoxia (25% nitrogen, 75% oxygen). At P12 mice return to room air until P17. The group of five mice treated with siRNA targeting Shh receive a daily subretinal injection (1 μl) of 100 mg/ml siRNA targeting Shh dissolved in Phosphate-Buffered Saline (PBS) from P12 to P17, controls receive the vehicle alone.
For series [2], the system named is VEGF protein expression in 293 cells. As to conditions: HEK-293 cells, desferroxamine 100 μM, Cyclopamine 10 μM, 24 hours. On the procedure: Five μl of 95% ethanol was added to untreated control.
Twenty-four hours after induction of hypoxia the supernatant of the 293 cells was removed from wells and a human VEGF ELISA (R & D Systems, Minneapolis, Minn.) was performed on the cell supernatants (FIG. 4) as described in the Quantikine human VEGF ELISA protocol using a dilution of
the medium of 1:10. ELISA results were read on a Bio-Rad Reader 550 ELISA plate reader (Bio-Rad Laboratories, Inc, CA).

In the next series the test system is Hh-dependent tumors. The conditions noted are these: mice that carry Hh-dependent tumors; cited from earlier work.
Setting [3] is: daily subretinal injection (1 μl) of 100 mg/ml siRNA in PBS from P12 to P17, angiography on P17, vs vehicle control eyes.

As for `CC1=C2C[C@H]3[C@@H](CC=C4C[C@@H](O)CC[C@@]43C)[C@@H]2CC[C@]12O[C@@H]1C[C@H](C)CN[C@H]1[C@H]2C` [cyclopamine], the “inhibition of ocular neovascularization (neovascular tufts and vessel leakage)” value (from here on “inhibition of ocular neovascularization”) in series [1] (daily subcutaneous injection of 50 mg/kg from P12 to P17, angiography on P17, vs vehicle control eyes) is “Robust inhibition of ocular neovascularization”. In addition, the “inhibition of hypoxia-induced VEGF expression” value in series [2] is “Able to Inhibit Hypoxia-Induced VEGF Expression”. Also, in the series with Hh-dependent tumors, the “effect on Hh-dependent tumors” value is “growth inhibition and regression of cancerous tissue”; the “health of treated animals” value is listed as “does not affect the health of treated animals”.

For “siRNA targeting Gli1: siRNA duplex, SEQ ID NO:19 (sense strand) and SEQ ID NO:20 (antisense strand) (sense ACGCCGCAGCAGCAGCUCCUU; antisense GGAGCUGCUGCUGCGGCGUUU; listed as RNA, chemistry not given here)”, the “inhibition of ocular neovascularization” value in series [1] (setting [3]) is reported as “Robust inhibition of ocular neovascularization”.

“siRNA targeting Shh: siRNA duplex, SEQ ID NO:16 (sense strand) and SEQ ID NO:15 (antisense strand) (sense AAUUACAACCCCGACAUCAUAUU; antisense UAUGAUGUCGGGGUUGUAAUUUU; listed as RNA, chemistry not given here)”: in series [1] (setting [3]), the “inhibition of ocular neovascularization” value is recorded as “Robust inhibition of ocular neovascularization”.

Regarding “siRNA targeting Smoothened: siRNA duplex, SEQ ID NO:17 (sense strand) and SEQ ID NO:18 (antisense strand) (sense AAGGCCUUCUCUAAGCGGCAUU; antisense UGCCGCUUAGAGAAGGCCUUUU; listed as RNA, chemistry not given here)”, the “inhibition of ocular neovascularization” value in series [1] (setting [3]) is listed as “Robust inhibition of ocular neovascularization”.

B1: soluble Hip1: secreted form of Hedgehog interacting protein 1 lacking the transmembrane domain (SEQ ID NO:6), produced in 293 cells (protein, listed as Mus musculus)
chain: MLKMLSFKLLLLAVALGFFEGDAKFGERNEGSGARRRRCLNGNPPKRLKRRDRRVMSQLELLSGGEILCGGFYPRVSCCLQSDSPGLGRLENKIFSATNNSECSRLLEEIQCAPCSPHSQSLFYTPERDVLDGDLALPLLCKDYCKEFFYTCRGHIPGLLQTTADEFCFYYARKDAGLCFPDFPRKQVRGPASNYLGQMEDYEKVGGISRKHKHNCLCVQEVMSGLRQPVSAVHSGDGSHRLFILEKEGYVKILTPEGELFKEPYLDIHKLVQSGIKGGDERGLLSLAFHPNYKKNGKLYVSYTTNQERWAIGPHDHILRVVEYTVSRKNPHQVDVRTARVFLEVAELHRKHLGGQLLFGPDGFLYIILGDGMITLDDMEEMDGLSDFTGSVLRLDVDTDMCNVPYSIPRSNPHFNSTNQPPEVFAHGLHDPGRCAVDRHPTDININLTILCSDSNGKNRSSARILQIIKGRGYESEPSLLEFKPFSNGPLVGGFVYRGCQSERLYGSYVFGDRNGNFLTLQQSPVTKQWQEKPLCLGASSSCRGYFSGHILGFGEDELGEVYILSSSKSMTQTHNGKLYKIVDPKRPLMPEECRVTVQPAQPLTSDCSRLCRNGYYTPTGKCCCSPGWEGDFCRIAKCEPACRHGGVCVRPNKCLCKKGYLGPQCEQVDRNVRRVTR
For B1, the “inhibition of ocular neovascularization” value in series [1] (daily subretinal injection of 50 mg/kg in PBS from P12 to P17, angiography on P17, vs vehicle control eyes) was “Robust inhibition of ocular neovascularization”.
